Laboratory results taken from patent US20240145091A1, “METHOD FOR MODULATING THE AMOUNT OF VIRUS, METHOD FOR TREATING OR […] […], METHOD FOR […] AMOUNT OF VIRUS, AND METHOD FOR PREDICTING THE PROGNOSIS OF VIRUS INFECTION DISEASE IN SUBJECT, AS WELL AS COMPOSITION AND SYSTEM FOR THE SAME” (National Institutes of Biomedical Innovation, Health and …, priority 2022, published 2024).

Tests used:
[1] = system: SARS-CoV-2; assay: COVID-19 model mice study: body weight and survival after D-Ala administration; assay type: in vivo, CAG-hACE2 mice
Procedure: FIG. 10 is a schematic diagram of the experimental protocol using coronavirus-infected mice in Example 2. CAG-hACE2 mice susceptible to SARS-CoV-2, which were developed at the National Institute of Biomedical Innovation, Health and Nutrition, were used. 2×10^2 to 10^4 of TCID50 of SARS-CoV-2 was administered to anesthetized 8—to 12-week-old individuals for bronchial infection to create a mouse model of coronavirus infection (Non-Patent Literature 9).
FIG. 12 is a schematic diagram of the experimental schedule of D-Ala administration to coronavirus-infected mice in Example 2. 8—to 12-week-old male and female CAG-hACE2 mice were subjected to intraperitoneal administration with a predetermined dose of D-Ala twice daily, which was stared from 2 days prior to the experiment. The mice were then infected with SARS-CoV-2 via the respiratory tract.

[2] = system: H1N1 influenza A/Puerto Rico/8/34 (PR8 influenza virus strain); assay: Viral plaque quantification assay of lung tissue in influenza model mice; assay type: in vivo, C57BL6 mice; conditions: FIG. 3A; day 5 after D-Ala administration; IAV+D-Ala vs IAV group, n=3 to 7
Description: (§1) FIG. 1 is a schematic diagram showing the experimental protocol for D-AA administration (+D-AA) to IAV and Mock in Example 1. C57BL6 mice (SLC, Tokyo, Japan) raised in a specific pathogen control facility were used. In order to increase the amount of virus in the mice in a short period of time, […] water containing 50 times the TCID50 (median tissue culture infectious dose, 50% infectious dose) of H1N1 influenza A/Puerto Rico/8/34 (PR8 influenza virus strain (ATCC, Manassas, USA) was administered intranasally to anesthetized 4-week-old individuals to infect them. After infection, individuals in each group were weighed and blood samples were collected on a predetermined schedule, and plasma chiral amino acids (D-amino acids and L-amino acids) were quantitatively analyzed by 2D-HPLC.
FIG. 3A is a graph showing the results of the viral plaque quantification assay of lung tissue on day 5 after D-Ala administration in the Mock, IAV, and IAV+D-Ala groups (n=3 to 7) in Example 1.

[3] = system: H1N1 influenza A/Puerto Rico/8/34 (PR8 influenza virus strain); assay: Influenza model mice study: body weight and survival after D-amino acid administration; assay type: in vivo, C57BL6 mice
Description: as §1

[4] = FIG. 8, IAV (Vehicle), IAV+D-Ser, IAV+D-Ala groups
[5] = FIG. 9, IAV (Vehicle), IAV+D-Ser, IAV+D-Ala groups

C[C@@H](N)C(=O)O [D-Ala, D-alanine]
survival curves, Kaplan-Meier analysis with death as the endpoint ([1]; FIG. 14, SCV (Vehicle) vs SCV+D-Ala): suppressed the mortality | rates of change in body weights over time ([1]; FIG. 17, SCV (Vehicle) vs SCV+D-Ala): smaller rate of decrease in body weights | survival curves, Kaplan-Meier analysis with weight loss and death as composite endpoints ([1]; FIG. 18, SCV (Vehicle) vs SCV+D-Ala): suppressed the weight loss and the mortality | survival curves by blood D-Ala level, Kaplan-Meier analysis with death as the endpoint ([1]; FIG. 19, SCV+D-Ala group split into high (>4.72 μM) and low (<4.72 μM) BD-Ala): better prognosis | amount of virus, viral plaque quantification assay of lung tissue [2]: increase in the amount of virus in the IAV+D-Ala group was suppressed | rates of change in body weight ([3]; FIG. 2, IAV+D-Ala vs IAV group, n=3-10, *P<0.05): rates of weight loss were suppressed | survival curves, Kaplan-Meier analysis with death as the endpoint ([3]; FIG. 4, Mock, Mock+D-Ala, IAV, IAV+D-Ala groups, n=3-10): suppressed the mortality rate | survival curves, Kaplan-Meier analysis with death as the endpoint [3, 4]: suppressed the mortality | rates of change in body weight [3, 5]: rates of weight loss were suppressed

N[C@H](CO)C(=O)O [D-Ser, D-serine]
survival curves, Kaplan-Meier analysis with death as the endpoint [3, 4]: suppressed the mortality | rates of change in body weight [3, 5]: rates of weight loss were suppressed
